Key:
[1] = test system: AVEFA; test: greenhouse post-emergence herbicidal test; format: in vivo, wild oats
Text: (§1) The culture containers used were plastic flowerpots containing loamy sand with approximately 3.0% of humus as substrate. The seeds of the test plants were sown separately for each species. For the post-emergence treatment, the test plants were first grown to a plant height of from 3 to 15 cm, depending on the plant habit, and only then treated with the active ingredients which had been suspended or emulsified in water. To this end, the test plants were either sown directly and grown in the same containers, or they were first grown separately as seedlings and transplanted into the test containers a few days prior to treatment. […] Depending on the species, the plants were kept at from 10 to 25° C., or 20-35° C., respectively. The test period extended over 2 to 4 weeks. During this time, the plants were tended, and their response to the individual treatments was evaluated. Evaluation was carried out using a scale of from 0 to 100. 100 means no emergence of the plants, or complete destruction of at least the aerial parts, and 0 means no damage, or normal course of growth. [table]

[2] = test system: CHEAL; test: greenhouse post-emergence herbicidal test; format: in vivo, lambsquarters (goosefoot)
Text: as §1

[3] = test system: POLPE; test: greenhouse post-emergence herbicidal test; format: in vivo, ladysthumb
Text: as §1

[4] = test system: SOLNI; test: greenhouse post-emergence herbicidal test; format: in vivo, black nightshade
Text: as §1

[5] = test system: GALAP; test: greenhouse post-emergence herbicidal test; format: in vivo, catchweed bedstraw; details: application rates 0.5 and 0.25 kg/ha (a.s.)
Text: The culture containers used were plastic flowerpots containing loamy sand with approximately 3.0% of humus as substrate. The seeds of the test plants were sown separately for each species. For the post-emergence treatment, the test plants were first grown to a plant height of from 3 to 15 cm, depending on the plant habit, and only then treated with the active ingredients which had been suspended or emulsified in water. To this end, the test plants were either sown directly and grown in the same containers, or they were first grown separately as seedlings and transplanted into the test containers a few days prior to treatment. The rate of application for the post-emergence treatment was 0.5 or 0.25 kg of a.s. (active. substance)/ha. Depending on the species, the plants were kept at from 10 to 25° C., or 20-35° C., respectively. The test period extended over 2 to 4 weeks. During this time, the plants were tended, and their response to the individual treatments was evaluated. Evaluation was carried out using a scale of from 0 to 100. 100 means no emergence of the plants, or complete destruction of at least the aerial parts, and 0 means no damage, or normal course of growth. [table]

[6] = test system: LAMAM; test: greenhouse post-emergence herbicidal test; format: in vivo, henbit
Text: as §1

[7] = test system: STEME; test: greenhouse post-emergence herbicidal test; format: in vivo, common chickweed
Text: as §1

[8] = test system: THLAR; test: greenhouse post-emergence herbicidal test; format: in vivo, fanweed
Text: as §1

[9] = test system: PAPRH; test: greenhouse post-emergence herbicidal test; format: in vivo, corn poppy
Text: as §1

[10] = test system: EPHHL; test: greenhouse post-emergence herbicidal test; format: in vivo, spurge
Text: as §1

[11] = test system: MYOAR; test: greenhouse post-emergence herbicidal test; format: in vivo, forget-me-not
Text: as §1

[12] = test system: wheat; test: greenhouse post-emergence test, crop selectivity; format: in vivo, spring wheat; details: application rates 0.125 and 0.0625 kg/ha
Text: as §1

[13] = test system: GASPA; test: greenhouse post-emergence herbicidal test; format: in vivo, smallflower; details: application rates 0.125 and 0.0625 kg/ha
Text: as §1

[14] = test system: AMARE; test: greenhouse post-emergence herbicidal test; format: in vivo, redroot pigweed
Text: as §1

[15] = test system: ECHCG; test: greenhouse post-emergence herbicidal test; format: in vivo, barnyard grass
Text: as §1

[16] = application rates 0.5 and 0.25 kg/ha (a.s.)
[17] = application rates 0.25 and 0.125 kg/ha
[18] = application rates 0.125 and 0.0625 kg/ha
[19] = application rates 0.5 and 0.25 kg/ha

**Q.** What does the source list for Cc1c(C(=O)c2cnn(C)c2O)ccc2scnc12 [Example 1, 4-[4′-Methylbenzothiazol-5′-ylcarbonyl]-5-hydroxy-1-methylpyrazole]?
**A.** herbicidal action against AVEFA [1, 16]: very good herbicidal action; herbicidal action against CHEAL [2, 16]: very good herbicidal action; herbicidal action against POLPE [3, 16]: very good herbicidal action; herbicidal action against SOLNI [4, 16]: very good herbicidal action; herbicidal action against GALAP [5]: very good herbicidal action; melting point: 149 to 150 °C

**Q.** Which “herbicidal action against CHEAL” value [2, 17] does the source give for Cc1c(C(=O)c2cnn(C(C)C)c2O)ccc2scnc12 [Example 12, 4-(4′-methylbenzothiazol-5′-ylcarbonyl)-5-hydroxy-1-isopropylpyrazole] here?
**A.** very good herbicidal action

**Q.** And the “herbicidal action against LAMAM” value [6, 17]?
**A.** very good herbicidal action

**Q.** What about the “herbicidal action against STEME” value [7, 17] of the same compound?
**A.** very good herbicidal action

**Q.** What about the “herbicidal action against THLAR” value [8, 17] of the same compound?
**A.** very good herbicidal action

**Q.** What about the “herbicidal action against PAPRH” value [9, 17] of the same compound?
**A.** very good herbicidal action

**Q.** With Cc1c(C(=O)c2cnn(C)c2OCc2ccccc2)ccc2scnc12 [Example 13, 4-(4′-methylbenzothiazol-5′-ylcarbonyl)-5-benzyloxy-1-methylpyrazole] as the compound, how does the “herbicidal action against CHEAL” value [2, 18] read?
**A.** very good herbicidal action

**Q.** And the “herbicidal action against SOLNI” value [4, 18]?
**A.** very good herbicidal action

**Q.** And the “herbicidal action against EPHHL” value [10, 18]?
**A.** very good herbicidal action

**Q.** What about the “herbicidal action against MYOAR” value [11, 18] of the same compound?
**A.** very good herbicidal action

**Q.** What about the “herbicidal action against PAPRH” value [9, 18] of the same compound?
**A.** very good herbicidal action

**Q.** And the selectivity in wheat [12]?
**A.** selectivity in wheat

**Q.** With Cc1nc2c(C)c(C(=O)c3cnn(C)c3O)ccc2s1 [Example 14, 4-(2′,4′-dimethylbenzothiazol-5′-ylcarbonyl)-5-hydroxy-1-methylpyrazole] as the compound, how does the “herbicidal action against GASPA” value [13] read?
**A.** very good herbicidal action

**Q.** And the “herbicidal action against LAMAM” value [6, 18]?
**A.** very good herbicidal action

**Q.** And the “herbicidal action against STEME” value [7, 18]?
**A.** very good herbicidal action

**Q.** What about the “herbicidal action against THLAR” value [8, 18] of the same compound?
**A.** very good herbicidal action

**Q.** For Cc1c(C(=O)c2cnn(C)c2OC(=O)c2ccccc2)ccc2scnc12 [Example 15, 4-(4′-methylbenzothiazol-5′-ylcarbonyl)-5-benzoyloxy-1-methylpyrazole], which “herbicidal action against AVEFA” value [1, 17] is on record?
**A.** very good herbicidal action

**Q.** And the “herbicidal action against CHEAL” value [2, 17]?
**A.** very good herbicidal action

**Q.** And the “herbicidal action against POLPE” value [3, 17]?
**A.** very good herbicidal action

**Q.** What about the “herbicidal action against AMARE” value [14, 17] of the same compound?
**A.** very good herbicidal action

**Q.** What about the “herbicidal action against ECHCG” value [15, 17] of the same compound?
**A.** very good herbicidal action

**Q.** Which “herbicidal action against CHEAL” value [2, 16] does the source give for Cc1c(C(=O)c2cnn(C)c2OC(=O)c2cccc(F)c2)ccc2scnc12 [Example 16, 4-(4′-methylbenzothiazol-5′-ylcarbonyl)-5-(3″-fluorobenzoyl)oxy-1-methylpyrazole] here?
**A.** very good herbicidal action

**Q.** What about the “herbicidal action against POLPE” value [3, 16] of the same compound?
**A.** very good herbicidal action

**Q.** What about the “herbicidal action against GALAP” value [5] of the same compound?
**A.** very good herbicidal action

**Q.** What about the “herbicidal action against AMARE” value [14, 19] of the same compound?
**A.** very good herbicidal action

**Q.** What about the “herbicidal action against ECHCG” value [15, 19] of the same compound?
**A.** very good herbicidal action

**Q.** Which “herbicidal action against AVEFA” value [1, 17] does the source give for Cc1c(C(=O)c2cnn(C)c2OC(=O)C2CC2)ccc2scnc12 [Example 18, 4-(4′-methylbenzothiazol-5′-ylcarbonyl)-5-cyclopropylcarbonyloxy-1-methylpyrazole] here?
**A.** very good herbicidal action

**Q.** What about the “herbicidal action against CHEAL” value [2, 17] of the same compound?
**A.** very good herbicidal action

**Q.** And the “herbicidal action against POLPE” value [3, 17]?
**A.** very good herbicidal action

**Q.** What about the “herbicidal action against AMARE” value [14, 17] of the same compound?
**A.** very good herbicidal action

**Q.** And the “herbicidal action against ECHCG” value [15, 17]?
**A.** very good herbicidal action

**Q.** With CCc1nc2c(C)c(C(=O)c3cnn(C)c3O)ccc2o1 [Example 30, 4-(2′-ethyl-4′-methylbenzoxazol-5′-ylcarbonyl)-5-hydroxy-1-methylpyrazole] as the compound, how does the “herbicidal action against CHEAL” value [2, 17] read?
**A.** very good herbicidal action

**Q.** What about the “herbicidal action against POLPE” value [3, 17] of the same compound?
**A.** very good herbicidal action

**Q.** And the “herbicidal action against LAMAM” value [6, 17]?
**A.** very good herbicidal action

**Q.** What about the “herbicidal action against THLAR” value [8, 17] of the same compound?
**A.** very good herbicidal action

**Q.** And the “herbicidal action against PAPRH” value [9, 17]?
**A.** very good herbicidal action

**Q.** Which “herbicidal action against CHEAL” value [2, 17] does the source give for CCc1nc2c(C)c(C(=O)c3cnn(C(C)C)c3O)ccc2o1 [Example 31, 4-(2′-ethyl-4′-methylbenzoxazol-5′-ylcarbonyl)-5-hydroxy-1-isopropylpyrazole] here?
**A.** very good herbicidal action

**Q.** And the “herbicidal action against POLPE” value [3, 17]?
**A.** very good herbicidal action

**Q.** And the “herbicidal action against LAMAM” value [6, 17]?
**A.** very good herbicidal action

**Q.** What about the “herbicidal action against THLAR” value [8, 17] of the same compound?
**A.** very good herbicidal action

**Q.** And the “herbicidal action against PAPRH” value [9, 17]?
**A.** very good herbicidal action

**Q.** What about the “herbicidal action against AMARE” value [14, 17] of the same compound?
**A.** very good herbicidal action

**Q.** What does the source list for Cc1nc2c(C)c(C(=O)c3cnn(C(C)C)c3O)ccc2s1 [Example 33, 4-(2′,4′-dimethylbenzothiazol-5′-ylcarbonyl)-5-hydroxy-1-isopropylpyrazole]?
**A.** herbicidal action against CHEAL [2, 17]: very good herbicidal action; herbicidal action against LAMAM [6, 17]: very good herbicidal action; herbicidal action against THLAR [8, 17]: very good herbicidal action; herbicidal action against MYOAR [11, 17]: very good herbicidal action; herbicidal action against PAPRH [9, 17]: very good herbicidal action; herbicidal action against AMARE [14, 17]: very good herbicidal action

**Q.** For COCc1nc2c(C)c(C(=O)c3cnn(C)c3O)ccc2s1 [Example 34, 4-(2′-methoxymethyl-4′-methylbenzothiazol-5′-ylcarbonyl)-5-hydroxy-1-methylpyrazole], which “herbicidal action against CHEAL” value [2, 17] is on record?
**A.** very good herbicidal action

**Q.** And the “herbicidal action against LAMAM” value [6, 17]?
**A.** very good herbicidal action

**Q.** What about the “herbicidal action against STEME” value [7, 17] of the same compound?
**A.** very good herbicidal action

**Q.** And the “herbicidal action against THLAR” value [8, 17]?
**A.** very good herbicidal action

**Q.** What about the “herbicidal action against PAPRH” value [9, 17] of the same compound?
**A.** very good herbicidal action

**Q.** Which “herbicidal action against CHEAL” value [2, 17] does the source give for COCc1nc2c(C)c(C(=O)c3cnn(C(C)C)c3O)ccc2s1 [Example 36, 4-(2′-methoxymethyl-4′-methylbenzothiazol-5′-ylcarbonyl)-5-hydroxy-1-isopropylpyrazole] here?
**A.** very good herbicidal action

**Q.** And the “herbicidal action against SOLNI” value [4, 17]?
**A.** very good herbicidal action

**Q.** What about the “herbicidal action against STEME” value [7, 17] of the same compound?
**A.** very good herbicidal action

**Q.** And the “herbicidal action against EPHHL” value [10, 17]?
**A.** very good herbicidal action

**Q.** And the “herbicidal action against MYOAR” value [11, 17]?
**A.** very good herbicidal action

**Q.** And the “herbicidal action against PAPRH” value [9, 17]?
**A.** very good herbicidal action

Reference: US6541423B1, “4-(3′,4′-heterocyclyl benzoyl) pyrazoles as herbicidal agents” (BASF Aktiengesellschaft, priority 1999, dated 2003)
